# Measurements: patent US12662491B2 (Redona Therapeutics, Inc., priority 2020, dated 2026)
# Target: T1, Zcchc11 enzyme (Homo sapiens, UniProt Q5TAX3)
# T1 construct: made in house; host or cells: HEK293 cells (Zcchc11); E. coli Rosetta II (LIN28A)
# T1 sequence (Q5TAX3 212-1420): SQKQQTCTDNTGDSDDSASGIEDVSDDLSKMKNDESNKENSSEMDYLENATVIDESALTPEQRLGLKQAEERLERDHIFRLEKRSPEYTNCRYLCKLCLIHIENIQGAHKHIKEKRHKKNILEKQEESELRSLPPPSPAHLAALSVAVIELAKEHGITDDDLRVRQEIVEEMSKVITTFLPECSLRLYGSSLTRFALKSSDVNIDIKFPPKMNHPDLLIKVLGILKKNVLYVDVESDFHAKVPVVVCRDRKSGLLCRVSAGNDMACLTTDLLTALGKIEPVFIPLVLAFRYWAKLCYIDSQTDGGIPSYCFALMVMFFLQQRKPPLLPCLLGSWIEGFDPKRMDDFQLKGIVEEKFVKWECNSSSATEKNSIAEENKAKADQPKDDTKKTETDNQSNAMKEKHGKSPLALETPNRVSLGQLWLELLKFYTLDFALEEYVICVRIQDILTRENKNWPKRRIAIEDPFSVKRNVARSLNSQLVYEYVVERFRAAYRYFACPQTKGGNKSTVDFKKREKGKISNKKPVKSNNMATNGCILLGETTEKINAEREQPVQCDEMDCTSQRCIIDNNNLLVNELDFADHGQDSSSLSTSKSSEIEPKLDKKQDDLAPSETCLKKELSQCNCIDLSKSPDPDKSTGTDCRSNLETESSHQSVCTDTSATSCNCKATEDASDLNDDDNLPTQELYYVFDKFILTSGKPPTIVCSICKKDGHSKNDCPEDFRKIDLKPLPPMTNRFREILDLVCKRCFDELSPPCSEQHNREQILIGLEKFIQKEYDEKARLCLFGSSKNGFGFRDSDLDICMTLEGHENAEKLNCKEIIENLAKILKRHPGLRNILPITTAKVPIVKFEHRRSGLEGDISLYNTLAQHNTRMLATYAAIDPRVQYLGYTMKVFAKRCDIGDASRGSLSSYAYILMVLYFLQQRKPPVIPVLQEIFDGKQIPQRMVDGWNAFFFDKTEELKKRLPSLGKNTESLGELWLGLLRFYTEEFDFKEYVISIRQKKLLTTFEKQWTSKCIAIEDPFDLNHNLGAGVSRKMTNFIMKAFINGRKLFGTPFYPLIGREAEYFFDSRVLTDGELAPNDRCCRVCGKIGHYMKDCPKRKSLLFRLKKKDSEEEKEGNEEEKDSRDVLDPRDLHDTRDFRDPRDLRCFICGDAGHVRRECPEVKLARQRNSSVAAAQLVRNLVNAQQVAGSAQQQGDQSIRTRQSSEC
# Test: TUTase assay (Zcchc11 assay, Lin28a-dependent polyuridylation of pre-let-7)
# Type: biochemical
# Conditions: Lin28a-dependent Zcchc11 (Z11) TUTase activity; read-out: Potency Lin28a-dep Z11 IC50
# In short: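 Polyuridylation measured as fluorescein loss when a rhodamine-labelled A20 probe anneals to U-tails added to fluorescein pre-let-7 (2 nM). Reaction: truncated Zcchc11 0.2 nM, E. coli-made LIN28A 10 nM, UTP 5 uM, HEPES pH 7.3, room temperature. Initial rates fitted to four-parameter IC50.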
row,Compound,IC50
1,"CN(C)C1CN(c2ccc(-n3cc(C(=O)O)c(=O)c4cc(F)c(N5CC(c6cccnc6)C[C@@H]5COc5ncccc5Cl)cc43)cn2)C1 (single isomer, unassigned) [Compound 328]",≤ 1000 nM
2,"CN(C)C1CN(c2ccc(-n3cc(C(=O)O)c(=O)c4cc(F)c(N5C[C@@H](c6cccnc6)C[C@@H]5COc5ncccc5Cl)cc43)cn2)C1 (single isomer, unassigned) [Compound 329]",≤ 1000 nM
3,"O=C(O)c1cn(-c2ccc(O)cc2F)c2c(F)c(N3CCC[C@@H]3COc3ccccn3)c(F)cc2c1=O [Compound 80, (R)-6,8-difluoro-1-(2-fluoro-4-hydroxy-phenyl)-4-oxo-7-(2-((pyridin-2-yloxy)methyl)pyrrolidin-1-yl)-1,4-dihydro-quinoline-3-carboxylic acid]",1000 to 10000 nM
4,"O=C(O)c1cn(C2CC2)c2cc(N3CCC[C@H]3COc3ccccn3)c(F)cc2c1=O [Compound 81, (S)-1-cyclopropyl-6-fluoro-4-oxo-7-(2-((pyridin-2-yloxy)methyl)pyrrolidin-1-yl)-1,4-dihydro-quinoline-3-carboxylic acid]",10000 to 50000 nM
5,"O=C(O)c1cn(-c2ccc(O)cc2F)c2c(F)c(N3CCC[C@H]3COc3ccccn3)c(F)cc2c1=O [Compound 82, (S)-6,8-difluoro-1-(2-fluoro-4-hydroxy-phenyl)-4-oxo-7-(2-((pyridin-2-yloxy)methyl)pyrrolidin-1-yl)-1,4-dihydro-quinoline-3-carboxylic acid]",10000 to 50000 nM
6,"O=C(O)c1cn(-c2ccccc2)c2cc(N3CCC[C@@H]3COc3ccccn3)c(F)cc2c1=O [Compound 85, (R)-6-fluoro-4-oxo-1-phenyl-7-(2-((pyridin-2-yloxy)methyl)pyrrolidin-1-yl)-1,4-dihydro-quinoline-3-carboxylic acid]",≤ 1000 nM
7,"Cc1cccc(OC[C@H]2CCCN2c2cc3c(cc2F)c(=O)c(C(=O)O)cn3-c2ccccc2)n1 [Compound 92, (R)-6-fluoro-7-(2-(((6-methyl-pyridin-2-yl)oxy)methyl)pyrrolidin-1-yl)-4-oxo-1-phenyl-1,4-dihydro-quinoline-3-carboxylic acid]",≤ 1000 nM
8,"Cc1ccc(OC[C@H]2CCCN2c2cc3c(cc2F)c(=O)c(C(=O)O)cn3-c2ccccc2)nc1 [Compound 93, (R)-6-fluoro-7-(2-(((5-methyl-pyridin-2-yl)oxy)methyl)pyrrolidin-1-yl)-4-oxo-1-phenyl-1,4-dihydro-quinoline-3-carboxylic acid]",≤ 1000 nM
9,"O=C(O)c1cn(-c2ccc(O)cc2F)c2cc(N3CCC[C@@H]3COc3ccccn3)c(Cl)cc2c1=O [Compound 95, (R)-6-chloro-1-(2-fluoro-4-hydroxy-phenyl)-4-oxo-7-(2-((pyridin-2-yloxy)methyl)pyrrolidin-1-yl)-1,4-dihydro-quinoline-3-carboxylic acid]",≤ 1000 nM
10,"O=C(O)c1cn(-c2ccccc2)c2cc(N3CCC[C@@H]3COc3ncccc3F)c(F)cc2c1=O [Compound 98, (R)-6-fluoro-7-(2-(((3-fluoropyridin-2-yl)oxy)methyl)pyrrolidin-1-yl)-4-oxo-1-phenyl-1,4-dihydro-quinoline-3-carboxylic acid]",≤ 1000 nM
11,"O=C(O)c1cn(-c2ccccc2)c2cc(N3CCC[C@@H]3COc3ncccc3C(F)(F)F)c(F)cc2c1=O [Compound 100, (R)-6-fluoro-4-oxo-1-phenyl-7-(2-(((3-(trifluoro-methyl)pyridin-2-yl)oxy)methyl)pyrrolidin-1-yl)-1,4-dihydro-quinoline-3-carboxylic acid]",≤ 1000 nM

# Next, values leading:
row,IC50,Compound
1,1000 to 10000 nM,"O=C(O)c1cn(C2CC2)c2c(F)c(N3CCC[C@@H]3COc3ccccn3)c(F)cc2c1=O [Compound 79, (R)-1-cyclopropyl-6,8-difluoro-4-oxo-7-(2-((pyridin-2-yloxy)methyl)pyrrolidin-1-yl)-1,4-dihydro-quinoline-3-carboxylic acid]"
2,≤ 1000 nM,"O=C(O)c1cn(-c2ccc(O)cc2F)c2cc(N3CCC[C@@H]3COc3ccccn3)c(F)cc2c1=O [Compound 83, (R)-6-fluoro-1-(2-fluoro-4-hydroxy-phenyl)-4-oxo-7-(2-((pyridin-2-yloxy)methyl)pyrrolidin-1-yl)-1,4-dihydro-quinoline-3-carboxylic acid]"
3,≤ 1000 nM,"O=C(O)c1cn(-c2ccc(F)cc2F)c2cc(N3CCC[C@@H]3COc3ccccn3)c(F)cc2c1=O [Compound 84, (R)-1-(2,4-difluorophenyl)-6-fluoro-4-oxo-7-(2-((pyridin-2-yloxy)methyl)pyrrolidin-1-yl)-1,4-dihydro-quinoline-3-carboxylic acid]"
4,≤ 1000 nM,"O=C(O)c1cn(-c2ccccc2)c2c(F)c(N3CCC[C@@H]3COc3ccccn3)c(F)cc2c1=O [Compound 86, (R)-6,8-difluoro-4-oxo-1-phenyl-7-(2-((pyridin-2-yloxy)methyl)pyrrolidin-1-yl)-1,4-dihydro-quinoline-3-carboxylic acid]"
5,1000 to 10000 nM,"O=C(O)c1cn(C2CC2)c2cc(N3CCC[C@@H]3COc3ccccn3)c(F)cc2c1=O [Compound 87, (R)-1-cyclopropyl-6-fluoro-4-oxo-7-(2-((pyridin-2-yloxy)methyl)pyrrolidin-1-yl)-1,4-dihydro-quinoline-3-carboxylic acid]"
6,1000 to 10000 nM,"O=C(O)c1cn(-c2ncc(O)cn2)c2cc(N3CCC[C@@H]3COc3ccccn3)c(F)cc2c1=O [Compound 88, (R)-6-fluoro-1-(5-hydroxy-pyrimidin-2-yl)-4-oxo-7-(2-((pyridin-2-yloxy)methyl)pyrrolidin-1-yl)-1,4-dihydro-quinoline-3-carboxylic acid]"
7,10000 to 50000 nM,"O=C(O)c1cn(-c2ccc(O)cc2F)c2cc(N3CCC[C@@H]3COc3cnccn3)c(F)cc2c1=O [Compound 89, (R)-6-fluoro-1-(2-fluoro-4-hydroxy-phenyl)-4-oxo-7-(2-((pyrazin-2-yloxy)methyl)pyrrolidin-1-yl)-1,4-dihydro-quinoline-3-carboxylic acid]"
8,> 50000 nM,"O=C(O)c1cn(-c2ccc(O)cc2F)c2cc(N3CCC[C@@H]3COc3ccccc3)c(F)cc2c1=O [Compound 90, (R)-6-fluoro-1-(2-fluoro-4-hydroxy-phenyl)-4-oxo-7-(2-(phenoxy-methyl)pyrrolidin-1-yl)-1,4-dihydro-quinoline-3-carboxylic acid]"
9,10000 to 50000 nM,"O=C(O)c1cn(C2CC2)c2c(Cl)c(N3CCC[C@@H]3COc3ccccn3)c(F)cc2c1=O [Compound 91, (R)-8-chloro-1-cyclopropyl-6-fluoro-4-oxo-7-(2-((pyridin-2-yloxy)methyl)pyrrolidin-1-yl)-1,4-dihydro-quinoline-3-carboxylic acid]"
10,≤ 1000 nM,"Cc1ccnc(OC[C@H]2CCCN2c2cc3c(cc2F)c(=O)c(C(=O)O)cn3-c2ccccc2)c1 [Compound 94, (R)-6-fluoro-7-(2-(((4-methyl-pyridin-2-yl)oxy)methyl)pyrrolidin-1-yl)-4-oxo-1-phenyl-1,4-dihydro-quinoline-3-carboxylic acid]"
11,> 50000 nM,"O=C(O)c1cn(C2CC2)c2cc(N3CCC[C@@H]3COc3ccccc3)c(F)cc2c1=O [Compound 96, (R)-1-cyclopropyl-6-fluoro-4-oxo-7-(2-(phenoxy-methyl)pyrrolidin-1-yl)-1,4-dihydro-quinoline-3-carboxylic acid]"
12,≤ 1000 nM,"O=C(O)c1cn(-c2ccccc2)c2cc(N3CCC[C@@H]3COc3ncccc3Cl)c(F)cc2c1=O [Compound 97, (R)-7-(2-(((3-chloro-pyridin-2-yl)oxy)methyl)pyrrolidin-1-yl)-6-fluoro-4-oxo-1-phenyl-1,4-dihydro-quinoline-3-carboxylic acid]"
13,≤ 1000 nM,"COc1cccnc1OC[C@H]1CCCN1c1cc2c(cc1F)c(=O)c(C(=O)O)cn2-c1ccccc1 [Compound 99, (R)-6-fluoro-7-(2-(((3-methoxy-pyridin-2-yl)oxy)methyl)pyrrolidin-1-yl)-4-oxo-1-phenyl-1,4-dihydro-quinoline-3-carboxylic acid]"
